Assay results reported in article PMC10926604, “Discovery of a novel small molecule as CD47/SIRPα and PD-1/PD-L1 dual inhibitor for cancer immunotherapy” (Cell Communication and Signaling : CCS, 2024).
Entries after “also recorded” stand apart in the source; their conditions may differ.

What was measured:
[1] = molecular target: hTIM-3/hGal-9 (Homo sapiens, UniProt O00182+Q8TDQ0); assay: Blockade of other immune checkpoint pathways, TIM-3/Gal-9; type: cell-based; conditions: Fig. S2
[2] = molecular target: hLAG-3/hFGL-1 (Homo sapiens, UniProt P18627+Q08830); assay: Blockade of other immune checkpoint pathways, LAG-3/FGL-1; type: cell-based; conditions: Fig. S2
hLAG-3/hFGL-1, sequence (P18627 23-525): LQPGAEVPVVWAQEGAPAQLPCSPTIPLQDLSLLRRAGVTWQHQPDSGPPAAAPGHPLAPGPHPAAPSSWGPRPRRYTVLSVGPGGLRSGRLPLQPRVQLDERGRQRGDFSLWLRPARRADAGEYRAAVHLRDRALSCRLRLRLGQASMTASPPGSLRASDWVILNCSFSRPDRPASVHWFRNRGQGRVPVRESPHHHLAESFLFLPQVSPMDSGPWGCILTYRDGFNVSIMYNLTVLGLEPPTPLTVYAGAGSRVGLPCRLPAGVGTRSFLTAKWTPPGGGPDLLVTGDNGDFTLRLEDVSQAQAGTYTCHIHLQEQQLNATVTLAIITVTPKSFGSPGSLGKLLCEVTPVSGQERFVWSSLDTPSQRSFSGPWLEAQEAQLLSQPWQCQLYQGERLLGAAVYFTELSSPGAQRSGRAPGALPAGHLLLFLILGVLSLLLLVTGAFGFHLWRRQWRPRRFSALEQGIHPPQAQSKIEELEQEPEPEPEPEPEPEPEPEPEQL
hLAG-3/hFGL-1, sequence (Q08830 23-312): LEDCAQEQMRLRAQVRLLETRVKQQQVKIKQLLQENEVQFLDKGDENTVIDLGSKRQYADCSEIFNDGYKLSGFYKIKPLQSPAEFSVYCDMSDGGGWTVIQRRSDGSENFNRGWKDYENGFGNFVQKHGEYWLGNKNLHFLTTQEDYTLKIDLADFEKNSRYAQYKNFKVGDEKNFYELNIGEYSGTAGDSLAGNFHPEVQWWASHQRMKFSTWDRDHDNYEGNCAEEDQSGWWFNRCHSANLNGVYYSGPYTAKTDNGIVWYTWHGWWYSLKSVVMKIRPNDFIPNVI

[3] = Mouse blood indicators and H&E staining of major organs; type: in vivo; conditions: for ALT: NS 45.13 ± 1.55; for AST: NS 187.4 ± 25.5
Description: Peripheral blood samples were collected from mice that received intravenous injections of SMC18 (2 or 6 mg/kg) for 2 weeks. The samples were analyzed for whole blood hematological test to detect the indicators of anemia and liver injury. For H&E staining analysis, tumors and the major organs (heart, liver, spleen, lung and kidney) were harvested from tumor-bearing mice. The tissues were then fixed with 4.0% paraformaldehyde for paraffin embedding and processed by H&E staining for histological evaluation. Immunostaining of tumor tissue sections was conducted utilizing anti-mouse CD8α andtibody (53–6.7, eBioscience).

[4] = test system: Jurkat cells co-cultured with CHO-K1-hPD-L1 cells; assay: Co-culture assay, IL-2 secretion of Jurkat cells with CHO-K1-hPD-L1 cells; type: cell-based, human; conditions: 50 μM, co-culture with CHO-K1-hPD-L1 cells 48 h
Description: Jurkat cells were stimulated with 25 ng/mL of […] (PMA, 16,561–29-8, Sigma) and 1 μg/mL of phytohemag-glutinin (PHA, L8902, Sigma) or 1 μg/mL anti-human CD3 (OKT3, BioGems and 0.5 μg/mL anti-human CD28 (CD28.2, BioGems) for 24 h. Subsequently, they were co-cultured with CHO-K1-hPD-L1 cells at a ratio of 4:1 for 48 h. SMC18 (50 μΜ) and OPBP-1 peptide (100 μM) were added as experimental group and positive control group, respectively. Four hours before the end of the co-culture, protein transport inhibitor (555,029, BD Biosciences) was added. Jurkat cells were collected and stained with anti-human CD45 antibody (HI30, eBioscience) for 30 min. The cells were then fixed and stained with anti-human IL-2-APC (MQ1-17H12, eBioscience) for another 30 min. The fluorescence intensity was analyzed by flow cytometry (BD, FACSCelesta).

[5] = test system: GFP+ MC38 cells phagocytosed by BMDMs; assay: Phagocytosis assay, BMDMs with GFP+ MC38 cells; type: cell-based, mouse; conditions: 50 μM
Description: Bone marrow-derived macrophage cells (BMDMs) from C57BL/6N mice were isolated and induced with 20 ng/mL of mouse granulocyte–macrophage colony-stimulating factor (GM-CSF, 315–03, Peprotech) for 7 days, with regular medium changes and cytokine replenishment during cell induction. The cells were then harvested for subsequent experiments. Subsequently, the cells were treated with SMC18 at a concentration of 50 μΜ. The anti-CD47 antibody (clone miap301, 16–0471-81, Invitrogen) was employed as a positive control with 20 µg/mL. Phagocytosis was measured by the co-culture of macrophages with green fluorescent protein (GFP^+) tumor cells (GFP^+ MC38 and GFP^+ B16-OVA cells) at a ratio of 1:4 in serum-free medium at 37 °C for 4 h. The cells were harvested and identified by flow cytometry using anti-F4/80 antibody (BM8, 17–4801-82, eBioscience). The phagocytosis rate was calculated as the percentage F4/80^+GFP^+ cells relative to the total number of total F4/80^+ cells. For confocal microscopy detection, BMDMs were labelled with DiR dye (R-22070, Beyotime) at a final concentration of 200 μM, followed by a 30-min staining period. After washing with PBS three times, the cells were cultured with DMEM medium devoid of serum for 2 h. Subsequently, MC38-EGFP cells were seeded onto BMDMs at a density of 4 × 10^6 cells per well. […]

[6] = molecular target: T1, murine PD-1/PD-L1 (Mus musculus, UniProt Q9EP73); assay: Cell-based blocking assay, murine PD-1/PD-L1; conditions: CHO-K1-mPD-1 cells, PD-L1-Fc, flow cytometry; read-out: IC50 for blocking murine PD-1/PD-L1 interaction
T1 construct: purchased Sino Biological 50,010-M02H; host or cells: CHO-K1-mPD-1 cells carry the partner (lentiviral transfection)
T1 sequence (Q9EP73 19-238 limits assumed): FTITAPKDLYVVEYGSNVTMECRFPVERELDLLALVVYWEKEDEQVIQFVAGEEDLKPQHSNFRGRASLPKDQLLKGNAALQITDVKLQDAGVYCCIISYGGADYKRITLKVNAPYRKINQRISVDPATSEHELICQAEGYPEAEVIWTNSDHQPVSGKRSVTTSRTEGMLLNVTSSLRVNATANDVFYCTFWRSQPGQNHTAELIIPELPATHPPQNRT
Description: The CHO-K1 cell line with stable expression of CD47 and PD-1 was constructed previously by our group. SMC18 was serially diluted using PBS 7.2 (containing 1% DMSO) and incubated with 100 ng of SIRPα-Fc protein (human: SIA-H5251, mouse: SIA-M5258, ACRO Biosystems) and 50 ng of PD-L1-Fc protein (human: 10,084-H02H, mouse: 50,010-M02H, Sino Biological) on ice for 30 min. The mixture was then added to the corresponding CHO-K1-CD47 or CHO-K1-PD-1 cells and further incubated on ice for 30 min. Afterward, PE-conjugated anti-human IgG (Fc) antibody (A18272, eBioscience) was added. The mean fluorescence intensity (MFI) of the cells was detected using flow cytometry (BD FACSCalibur) and the blocking efficiency was calculated.

[7] = molecular target: T2, murine PD-L1 (mPD-L1) (Mus musculus, UniProt Q9EP73); assay: MST binding assay, murine PD-L1; conditions: PD-L1-IgV-His, read-out: dissociation constant (KD) for murine PD-L1
T2 construct: PD-L1-IgV-His (human: 10,084-H08H, mouse: 50,010-M08H, Sino Biological); His; purchased Sino Biological 50,010-M08H
T2 sequence (Q9EP73 19-127 limits assumed): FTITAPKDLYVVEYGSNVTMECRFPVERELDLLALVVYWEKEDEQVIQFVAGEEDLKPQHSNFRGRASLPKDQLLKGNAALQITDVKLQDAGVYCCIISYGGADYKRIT
Description: SIPRα-IgV-His (human: SIA-H5225, mouse: SIA-M52H4, ACRO Biosystems) and PD-L1-IgV-His (human: 10,084-H08H, mouse: 50,010-M08H, Sino Biological) proteins were labeled with Red-NHS647 dye (NT-MO-L001, NanoTemper) for subsequent experiments. SMC18 (C385-0664, ChemDiv) was serially diluted using PBST (from 0.0191 μM to 200 μM) and mixed with the labeled proteins. The samples were then aspirated using standard capillaries and assayed by MST instrument (Monolith NT.115, NanoTemper), and the results were analyzed using the analytical software Monolith NT.115 system to calculate the dissociation constant (KD) values.

hTIM-3/hGal-9, sequence (Q8TDQ0 22-301): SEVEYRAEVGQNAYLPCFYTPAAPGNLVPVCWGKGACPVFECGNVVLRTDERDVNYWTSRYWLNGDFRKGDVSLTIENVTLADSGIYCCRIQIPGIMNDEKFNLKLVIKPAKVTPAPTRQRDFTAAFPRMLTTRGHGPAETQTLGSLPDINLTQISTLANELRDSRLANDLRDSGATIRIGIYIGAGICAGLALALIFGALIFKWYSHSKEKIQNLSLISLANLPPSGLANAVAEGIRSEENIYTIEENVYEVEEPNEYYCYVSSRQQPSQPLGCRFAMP
hTIM-3/hGal-9, sequence (O00182 whole entry): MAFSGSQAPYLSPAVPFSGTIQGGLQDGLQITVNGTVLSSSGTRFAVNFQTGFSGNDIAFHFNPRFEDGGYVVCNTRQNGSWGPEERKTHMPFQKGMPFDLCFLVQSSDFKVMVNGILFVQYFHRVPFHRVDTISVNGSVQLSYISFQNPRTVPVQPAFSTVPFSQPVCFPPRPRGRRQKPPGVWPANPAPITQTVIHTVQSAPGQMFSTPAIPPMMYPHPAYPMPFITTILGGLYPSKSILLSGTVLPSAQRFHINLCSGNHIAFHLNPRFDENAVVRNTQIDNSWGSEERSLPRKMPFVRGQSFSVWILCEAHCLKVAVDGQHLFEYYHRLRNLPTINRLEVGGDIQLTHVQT

Cc1cc(C)cc(NS(=O)(=O)c2ccc3[nH]cc(C(=O)NCCc4ccccc4)c(=O)c3c2)c1 [SMC18]
inhibitory effect on hTIM-3/hGal-9 pathway [1]: no blocking effect; also recorded: did not impede | inhibitory effect on hLAG-3/hFGL-1 pathway [2]: no blocking effect; also recorded: did not impede | ALT ([3]; 2 mg/kg daily for 14 days): 56.57 ± 13.3 U/L | AST ([3]; 2 mg/kg daily for 14 days): 196.4 ± 20.7 U/L | ALT ([3]; 6 mg/kg daily for 14 days): 46.83 ± 7.74 U/L | AST ([3]; 6 mg/kg daily for 14 days): 191.1 ± 23.3 U/L | content of alanine aminotransferase (ALT) vs control group ([3]; 2 or 6 mg/kg daily for 14 days): no significant differences | content of aspartate aminotransferase (AST) vs control group ([3]; 2 or 6 mg/kg daily for 14 days): no significant differences | levels of erythrocytes (RBC count) vs control group ([3]; 2 or 6 mg/kg daily for 14 days): No significant differences | levels of hemoglobin vs control group ([3]; 2 or 6 mg/kg daily for 14 days): No significant differences | H&E staining of major organs (heart, liver, spleen, lung, kidney) ([3]; tumor-bearing mice treated with SMC18): no significant damage | ability of Jurkat cells to secrete IL-2 [4]: effectively restored | phagocytosis of MC38 by BMDMs (flow cytometry) ([5]; 4 h): significantly increased | macrophage phagocytosis of MC38 cells (confocal) ([5]; DiR-labelled BMDMs, MC38-EGFP, vs control group): significantly enhanced | IC50 [6]: 71.3 ± 20 µM | Kd [7]: 25 ± 30 nM
